Test results as given in PMC10065799, “High-throughput profiling of sequence recognition by tyrosine kinases and SH2 domains using bacterial peptide display” (eLife, 2023).

Tests used:
c-Src kinase domain [1] = target: T1, c-Src kinase domain (Homo sapiens, UniProt P12931); assay: ADP-Quest continuous fluorimetric kinase assay (Michaelis-Menten parameters and initial rates); format: biochemical; conditions: c-Src kinase domain 10 nM, 100 μM ATP, 37 °C, three to five replicates, error = standard error of global Michaelis-Menten fit
Excerpt: A fluorescence-based assay from Eurofins (ADP Quest) was used to measure the Michaelis-Menten kinetic parameters for phosphorylation of the consensus peptides by purified tyrosine kinase domains. In this assay, ADP production as a result of kinase activity is coupled to the production of resorufin, a fluorophore that emits signal at 590 nm. For all experiments, the assay reactions were set up as described in the provided assay kit protocol, in a 384 well plate format. The peptide solutions were serially diluted in 100 mM Tris, pH 8.0, and the kinases were diluted to 50 nM in buffer (10 mM HEPES, 100 mM NaCl, 1 mM TCEP, 5 mM MgCl2, 10% (v/v) glycerol). The final reaction mixtures contained 10 nM of kinase with 100 μM of ATP. […] Phosphorylation reaction progress was monitored by measuring fluorescence at excitation 530 nm and emission 590 nm every 2 min at 37 °C on a plate reader (BioTek Synergy Neo 2). The fluorescence units (RFU) were converted to μM ADP by comparison to a standard curve, and the initial rates were extracted from the linear regime of the reaction progress curves. Initial rates were also measured for samples containing each kinase but lacking a peptide substrate, to account for background ATP hydrolysis. This background rate was subtracted from the rates measured in the presence of peptide. […]

Fer kinase domain = assay: pTyr-Var library bacterial peptide display kinase screen (enrichment scores); format: biochemical, mouse; conditions: for Screen: sheet "Fer", value of the variant peptide against its reference peptide in the pTyr-Var library screen with Fer;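 on Fer hit?: Hit requires p below 0.05 and at least twofold variant vs reference change plus filters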;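 on screen: log2 fold change in enrichment of variant over reference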
EPHB2 kinase domain = assay: as above; format: biochemical, human; conditions: for Screen: sheet EPHB2, effect of variant peptide relative to its reference peptide in the pTyr-Var library screen (enrichment scores);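 on screen: log2 fold change in enrichment of variant over reference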
c-Src kinase domain [2] = target: T1, c-Src kinase domain; assay: as above; format: biochemical; conditions: for Screen: sheet "Src"
c-Abl kinase domain = target: T2, c-Abl kinase domain (Mus musculus, UniProt P00520); assay: as above; format: biochemical; conditions: for Screen: fig5-data2, sheet "Abl", Screen for the variant/reference peptide pair;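 on screen: log2 fold change in enrichment of variant over reference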
T2 sequence (P00520 242-493 limits assumed): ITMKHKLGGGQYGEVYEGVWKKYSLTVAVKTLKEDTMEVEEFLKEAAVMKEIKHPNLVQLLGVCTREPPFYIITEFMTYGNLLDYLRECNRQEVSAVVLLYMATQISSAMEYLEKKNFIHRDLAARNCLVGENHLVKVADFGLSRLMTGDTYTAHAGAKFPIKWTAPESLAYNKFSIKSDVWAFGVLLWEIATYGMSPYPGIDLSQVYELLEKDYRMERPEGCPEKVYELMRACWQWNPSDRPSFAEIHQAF

EPHB1 kinase domain = assay: as above; format: biochemical, human; conditions: for Screen: sheet EPHB1, effect of the variant peptide relative to its reference peptide in the pTyr-Var library screen (enrichment scores);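 on screen: log2 fold change in enrichment of variant over reference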
Hck kinase domain = assay: as above; format: biochemical, human
FGFR3 kinase domain = assay: as above; format: biochemical, human
Jak2 = assay: as above; format: biochemical, human
SHP2 C-SH2 domain = assay: pTyr-Var library SH2 domain screen with SH2-dynabeads (enrichment scores)
Fyn kinase domain = assay: pTyr-Var library bacterial peptide display kinase screen (enrichment scores); format: biochemical, human;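 on Fyn hit?: Hit requires p below 0.05 and at least twofold variant vs reference change plus filters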
MERTK kinase domain = assay: as above; format: biochemical, human
AncSZ kinase domain = assay: as above; format: biochemical;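 on AncSZ hit?: Hit requires p below 0.05 and at least twofold variant vs reference change plus filters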
c-Src SH2 domain = c-Src SH2 domain (Homo sapiens, UniProt P12931); assay: pTyr-Var library SH2 domain screen with SH2-dynabeads (enrichment scores); conditions: sheet c-Src
Grb2 SH2 domain = assay: as above
Fes = assay: pTyr-Var library bacterial peptide display kinase screen (enrichment scores); format: biochemical
FGFR1 kinase domain = assay: as above; format: biochemical, human
[3] = effect of the variant peptide relative to its reference peptide in the pTyr-Var library screen
[4] = pTyr-Var library, enrichment score, replicate 1
[5] = pTyr-Var library, enrichment score, replicate 3
[6] = pTyr-Var library, enrichment score, replicate 4
[7] = variant versus reference peptide
[8] = variant versus reference peptide, significant hit TRUE/FALSE
[9] = mean of log2 of enrichment over R1-R4
[10] = mean of log2(variant) minus mean of log2(reference)
[11] = mean of log2 enrichment of variant peptide, n = 5
[12] = mean of log2 enrichment of variant peptide, n = 4
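Wherever c-Src hit? is given: Hit requires p below 0.05 and at least twofold variant vs reference change plus filters.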
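Wherever screen is given: log2 fold change in enrichment of variant over reference.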

“Ac-GAEEEIYGEFEAKKKG-NH2 [SrcTide (1995), previously reported c-Src consensus substrate (Songyang et al., 1995)]” showed a Km (c-Src kinase domain [1]) of 64 ± 10 µM and a kcat (c-Src kinase domain [1]) of 3.1±0.2 s^–1.

FSMGCYEIFLG [HMGCL_Y198_S201Y_YF] showed a Screen (Fer kinase domain) of 1.084, a Screen (EPHB2 kinase domain) of 0.8942 and a Screen (c-Src kinase domain [2]; [3]) of 1.946. The Screen (c-Abl kinase domain; pTyr-Var library) was 0.9187 and the Screen (EPHB1 kinase domain) was 0.9243.

For GMAHNYRNRSQ [AASS_Y188_S191R], the “Hck mean of log2(enrichment)” value (Hck kinase domain; mean of log2(variant) / mean of log2(reference), R1-R4) was 0.5234, the “Hck enrich. R1” value (Hck kinase domain; [4]) was 0.3364 and the “Hck enrich. R3” value (Hck kinase domain; [5]) was 0.4885. For the same substance, the “Hck enrich. R4” value (Hck kinase domain; [6]) was 0.9262, the “Hck difference (variant - reference)” value (Hck kinase domain; [7]) was 0.1099 and the “Hck hit?” value (Hck kinase domain; [8]) was “FALSE”. For the same substance, the “Fer mean of log2(enrichment)” value (Fer kinase domain; [9]) was -1.585, the “Fer enrich. R1” value (Fer kinase domain; [4]) was 0.273 and the “Fer enrich. R3” value (Fer kinase domain; [5]) was 0.5188. For the same substance, the “Fer enrich. R4” value (Fer kinase domain; [6]) was 0.4406, the “Fer difference (mean log2 variant - mean log2 reference)” value (Fer kinase domain; [7]) was -0.1949 and the “Fer hit?” value (Fer kinase domain; [8]) was “FALSE”. The difference (FGFR3 kinase domain; [10]) was -0.0947, the “mean of log2(variant)” value (FGFR3 kinase domain; [11]) was -1.326 and the difference (EPHB2 kinase domain; [10]) was -0.2462. The “mean of log2(variant)” value (EPHB2 kinase domain; [12]) was -1.376, the “Jak2 mean of log2(enrichment)” value (Jak2; mean of log2 of enrichment over R1-R3) was -1.127 and the “Jak2 enrich. R3” value (Jak2; [5]) was 0.7448. For the same substance, the “Jak2 difference (mean log2 variant - mean log2 reference)” value (Jak2; [7]) was 0.1075, the “Jak2 hit?” value (Jak2; [8]) was “FALSE” and the difference (SHP2 C-SH2 domain; SHP2-C SH2, mean of log2(variant) minus mean of log2(reference)) was -0.6126. The “mean of log2(variant)” value (SHP2 C-SH2 domain; SHP2-C SH2, mean of log2 enrichment of variant, R1-R3) was -1.425, the “hit?” value (SHP2 C-SH2 domain; SHP2-C SH2, variant versus reference significant hit call) was “FALSE” and the “Fyn mean of log2(enrichment)” value (Fyn kinase domain; [9]) was -1.18. The “Fyn enrich. R1” value (Fyn kinase domain; [4]) was 0.3131, the “Fyn enrich. R3” value (Fyn kinase domain; [5]) was 0.443 and the “Fyn enrich. R4” value (Fyn kinase domain; [6]) was 0.884. The “Fyn difference (mean log2 variant - mean log2 reference)” value (Fyn kinase domain; [7]) was 0.1477, the “Fyn hit?” value (Fyn kinase domain; [8]) was “FALSE” and the difference (MERTK kinase domain; [10]) was 0.1021. The “mean of log2(variant)” value (MERTK kinase domain; [12]) was -1.214, the “AncSZ mean of log2(enrichment)” value (AncSZ kinase domain; mean of log2 of enrichment over R1-R5) was -0.8229 and the “AncSZ enrich. R1” value (AncSZ kinase domain; [4]) was 0.4421. The “AncSZ enrich. R3” value (AncSZ kinase domain; [5]) was 0.7733, the “AncSZ enrich. R4” value (AncSZ kinase domain; [6]) was 0.7058 and the “AncSZ enrich. R5” value (AncSZ kinase domain; pTyr-Var library, enrichment score, replicate 5) was 0.7616. For the same substance, the “AncSZ difference (mean log2 variant - mean log2 reference)” value (AncSZ kinase domain; [7]) was -0.03377, the “AncSZ hit?” value (AncSZ kinase domain; [8]) was “FALSE” and the difference (c-Src SH2 domain; [10]) was -0.07136. For the same substance, the “mean of log2(variant)” value (c-Src SH2 domain; mean of log2 enrichment of variant peptide, R1-R3) was -1.19, the “c-Src mean of log2(enrichment)” value (c-Src kinase domain [2]; [9]) was -1.078 and the “c-Src enrich. R1” value (c-Src kinase domain [2]; [4]) was 0.5961. The “c-Src enrich. R3” value (c-Src kinase domain [2]; [5]) was 0.5045, the “c-Src enrich. R4” value (c-Src kinase domain [2]; [6]) was 0.4581 and the “c-Src difference (mean log2 variant - mean log2 reference)” value (c-Src kinase domain [2]; [7]) was 0.3253. For the same substance, the “c-Src hit?” value (c-Src kinase domain [2]; [8]) was “FALSE”, the difference (Grb2 SH2 domain; Grb2 SH2, mean of log2(variant) minus mean of log2(reference)) was -0.06902 and the “mean of log2(variant)” value (Grb2 SH2 domain; Grb2 SH2, mean of log2 enrichment of variant, R1-R3) was -0.6418. The “hit?” value (Grb2 SH2 domain; Grb2 SH2, variant versus reference significant hit call) was “FALSE”, the “Fes mean of log2(enrichment)” value (Fes; mean of log2 of enrichment over R1-R6) was -0.768 and the “Fes difference (mean log2 variant - mean log2 reference)” value (Fes; [7]) was 0.4232. The difference (FGFR1 kinase domain; [10]) was -0.1712, the “mean of log2(variant)” value (FGFR1 kinase domain; [11]) was -1.608 and the var. mean (FGFR1 kinase domain; pTyr-Var library, variant peptide enrichment, mean of n = 5) was 0.3444. The “c-Abl mean of log2(enrichment)” value (c-Abl kinase domain; [9]) was -0.8983, the “c-Abl enrich. R1” value (c-Abl kinase domain; [4]) was 0.3489 and the “c-Abl enrich. R3” value (c-Abl kinase domain; [5]) was 0.6113. The “c-Abl enrich. R4” value (c-Abl kinase domain; [6]) was 0.4438, the “c-Abl hit?” value (c-Abl kinase domain; [8]) was “FALSE” and the difference (EPHB1 kinase domain; [10]) was 0.7368. For the same substance, the “mean of log2(variant)” value (EPHB1 kinase domain; [12]) was -1.347.

IKRIDYEFVEM [ADA_Y84_A83D] was tested, and the Screen (Fer kinase domain) was -0.7273, the Screen (EPHB2 kinase domain) was 2.863 and the Screen (c-Abl kinase domain; pTyr-Var library) was 0.5744. For the same substance, the Screen (EPHB1 kinase domain) was 3.957.

Work on RTVPLYESLRK [DDB1_Y718_P721L] yielded a Screen (Fer kinase domain) of -0.4469, a Screen (EPHB2 kinase domain) of -0.0735 and a Screen (c-Src kinase domain [2]; [3]) of 1.169. It also gave a Screen (EPHB1 kinase domain) of 0.1495.

For SEPDLYFDPRG [PKP1_Y160_C161Y_YF], the Screen (Fer kinase domain) was -1.5, the Screen (EPHB2 kinase domain) was 1.913 and the Screen (c-Src kinase domain [2]; variant peptide versus its reference peptide in the pTyr-Var library screen) was 1.044. The Screen (EPHB1 kinase domain) was 1.592.
